Reference: patent EP4790063A1, “PEPTIDE HAVING ACTIVITY FOR […] OF MARINE FOULING” (National University Corporation Hokkaido University, priority 2023, dated 2025)
Read-outs that look alike come from different tables or passages of the source. Non-standard residues stand in square brackets, D forms with d. Residues, ends and D or L forms follow the SMILES beside them. ξ: configuration not given here. *: point of attachment. d(β3hL) = CC(C)C[C@@H](N)CC(=O)O; hPhe = N[C@@H](CCc1ccccc1)C(=O)O; Boc = CC(C)(C)OC(=O)*; ξβ3hA = CC(N)CC(=O)O; OBn = c1ccc(CO*)cc1

What was measured:
[1] = system: juvenile shellfish of Mediterranean mussel; assay: Evaluation of the antifouling activity and toxicity against the juvenile shellfish of Mediterranean mussel (coated glass beaker, 3 days); type: in vivo, Mytilus galloprovincialis; details: for bottom surface-adhered individuals % / bottom surface-crawling individuals % / overturned individuals or closed shell individuals (unadhered) % / wall surface-adhered individuals % / number of byssal threads on the bottom surface / bottom surface-adhered individuals No. / bottom surface-crawling individuals No. / overturned individuals or closed shell individuals (unadhered) No. / wall surface-adhered individuals No.: three days; for bottom surface-adhered individuals No. / bottom surface-crawling individuals No. / overturned individuals or closed shell individuals (unadhered) No. / wall surface-adhered individuals No.: twelve individuals; for antifouling effect (overall determination in words): juvenile Mediterranean mussel, 3.0 µg/mL and 10 µg/mL
Protocol: The sample was dissolved in ethanol to adjust to a concentration of 1 mg/mL. Thirty and 100 µL (30 and 100 µg) of the sample solutions were mixed with the solvent, and the mixtures were brought to a total volume of 500 µL. These mixtures were spread on the bottom surface of the glass beaker of the test container, and the solvent was volatilized by shaking them overnight. As a result, the samples to be evaluated were coated only on the bottom surface of the glass beaker.
A volume of 10 mL of the test seawater was added to the glass beakers of the test containers. The tests were initiated by introducing twelve test individuals into the test seawater in each beaker. The tests ended after three days, and the observation was conducted.
In Table 2, the terms "bottom surface-adhered individuals" and "wall surface-adhered individuals" refer to individuals that are adhered to the bottom surface and wall surface of the beaker, respectively; the term "bottom surface-crawling individuals" refers to individuals that move along the bottom surface without adhering; the term "overturned individuals or closed shell individuals (unadhered)" refers to individuals that are either overturned or in a closed shell without adhering to the bottom surface; and the term "number of byssal threads on the bottom surface" refers to the number of foot threads that are fixed to the bottom surface. In particular, the greater the reduction in the number of byssal threads, the stronger the effect of adhesion prevention.

[2] = system: cypris larvae of Striped Barnacle; assay: Evaluation of antifouling activities and toxicity against the cypris larvae of Striped Barnacle (24-well plate, adhesion and mortality after 48 h); type: in vivo, Amphibalanus amphitrite
Protocol: After solutions of about 2 mL of the test compounds (tripeptides 2 to 10 and dipeptide 11) in ethanol were dispensed into each well of the 24-well polystyrene multi-well plate (3.2 mL/well, well diameter 15.5 mm, well height 17.6 mm, manufactured by Corning), the multi-well plate was air-dried to evaporate the ethanol.
The test compounds were aliquoted to achieve final concentrations of 0.03, 0.1, 0.3, 1, 3, and 10 µg/mL.
Subsequently, six individuals of the cypris larvae of Striped Barnacle (hereinafter simply referred to as "barnacle larvae") were transplanted into each well along with 2 mL of pre-filtered natural seawater. The multi-well plate was left standing in an incubator at 25°C, and the barnacle larvae were allowed to grow for two days at 25°C.
In the above procedure, a test for the control group was conducted by dispensing an ethanol solution without any test compound. The natural seawater used in the above test was prepared by diluting the natural seawater collected from the coastal area near Onjuku, Chiba Prefecture (salt concentration: 36 g/kg) with distilled water to adjust a salt concentration of 32 g/kg.
In the test group, the control group, and the comparison group, the tests were conducted in four times (four wells) for one concentration of each test compounds.
Forty-eight hours after the test started, the number of adhered individuals and the number of dead individuals of the barnacle larvae in each well were counted under a stereomicroscope. The adhesion rate (%) and mortality rate (%) of the barnacle larvae in each well were calculated, respectively. […] Similarly, for each test compound, a dose-mortality response curve was created to determine the half-maximal lethal concentration (48h LC50) that causes 50% mortality in the barnacle larvae. As a reference, the value of Boc-3 obtained from non-Patent literature 8 is also described.
In particular, the lower the settlement rate, the stronger the antifouling effect.

[3] = system: NCI-H460 (human lung cancer cell line); details: Non-Patent Document 4; cited from earlier work
[4] = system: KM20L2 (human colon cancer cell line); details: Non-Patent Document 4; cited from earlier work
[5] = system: cypris larvae of the striped barnacle; details: Non-Patent Documents 5 and 7, cited from earlier work
[6] = system: SF-295 (human glioblastoma cell line); details: Non-Patent Document 4; cited from earlier work
[7] = 3 µg/mL (30 µg), control group 118
[8] = Table 4 summary of results from Test Examples 1 to 3 (rounded)
[9] = Test Example 1, concentration causing 50% mortality in barnacle larvae, 48 h, 25°C, tested 0.03-10 µg/mL
[10] = Test Example 1, concentration that prevents adhesion of barnacle larvae by 50%, 48 h, 25°C, tested 0.03-10 µg/mL
[11] = Test Example 3, same manner as Test Example 1

CC(CC(=O)OCc1ccccc1)NC(=O)[C@@H]1CCCN1C(=O)[C@H](Cc1ccccc1)NC(=O)OC(C)(C)C (stereo partly drawn) [tripeptide 9] (Boc-Phe-Pro-[ξβ3hA]-OBn)
bottom surface-adhered individuals % ([1]; 3 µg/mL (30 µg)): 75.0% | bottom surface-crawling individuals % ([1]; 3 µg/mL (30 µg)): 0.0% | overturned individuals or closed shell individuals (unadhered) % ([1]; 3 µg/mL (30 µg)): 16.7% | wall surface-adhered individuals % ([1]; 3 µg/mL (30 µg)): 8.3% | number of byssal threads on the bottom surface [1, 7]: 73 | bottom surface-adhered individuals No. ([1]; 3 µg/mL (30 µg)): 9 | bottom surface-crawling individuals No. ([1]; 3 µg/mL (30 µg)): 0 | overturned individuals or closed shell individuals (unadhered) No. ([1]; 3 µg/mL (30 µg)): 2 | wall surface-adhered individuals No. ([1]; 3 µg/mL (30 µg)): 1 | bottom surface-adhered individuals % ([1]; 10 µg/mL (100 µg)): 58.3% | bottom surface-crawling individuals % ([1]; 10 µg/mL (100 µg)): 0.0% | number of byssal threads on the bottom surface ([1]; 10 µg/mL (100 µg)): 34 | overturned individuals or closed shell individuals (unadhered) % ([1]; 10 µg/mL (100 µg)): 33.3% | wall surface-adhered individuals % ([1]; 10 µg/mL (100 µg)): 8.3% | bottom surface-adhered individuals No. ([1]; 10 µg/mL (100 µg)): 7 | bottom surface-crawling individuals No. ([1]; 10 µg/mL (100 µg)): 0 | overturned individuals or closed shell individuals (unadhered) No. ([1]; 10 µg/mL (100 µg)): 4 | wall surface-adhered individuals No. ([1]; 10 µg/mL (100 µg)): 1 | antifouling effect (overall determination in words) [1]: effective

CC(C)C(NC(=O)[C@@H]1CCCN1C(=O)[C@H](Cc1ccccc1)NC(=O)OC(C)(C)C)C(C)C(=O)O (some centres unmarked) [tripeptide 7]
Antifouling activity 48h EC50 [2, 8]: >10 µg/mL | Toxicity 48h LC50 [2, 9]: >10 µg/mL | Antifouling activity 48h EC50 [2, 10]: >10 µg/mL

CC(C)C(NC(=O)[C@@H]1CCCN1C(=O)[C@H](Cc1ccccc1)NC(=O)OC(C)(C)C)C(C)C(=O)OCc1ccccc1 (some centres unmarked) [tripeptide 6]
Antifouling activity 48h EC50 [2, 8]: 1.66 µg/mL | Toxicity 48h LC50 [2, 9]: >10 µg/mL | Antifouling activity 48h EC50 [2, 10]: 1.63 µg/mL

CCOC(=O)[C@H](C)NC(=O)[C@@H]1CCCN1C(=O)[C@H](Cc1ccccc1)NC(=O)OC(C)(C)C [tripeptide 2] (Boc-Phe-Pro-Ala-OEt)
Antifouling activity 48h EC50 [2, 8]: >10 µg/mL | Toxicity 48h LC50 [2, 9]: >10 µg/mL | Antifouling activity 48h EC50 [2, 10]: >10 µg/mL

CC(C)(C)OC(=O)N1CCC[C@H]1C(=O)Nc1ccccc1C(=O)OCc1ccccc1 [dipeptide 13, reference compound]
Antifouling activity 48h EC50 [2, 8]: 0.8 µg/mL | Antifouling activity 48h EC50 [2, 11]: 0.84 µg/mL | Toxicity 48h LC50 [2, 11]: >10 µg/mL

CC(C)C[C@H](CC(=O)OCc1ccccc1)NC(=O)[C@@H]1CCCN1C(=O)[C@H](CCc1ccccc1)NC(=O)OC(C)(C)C [tripeptide 12] (Boc-[hPhe]-Pro-[d(β3hL)]-OBn)
Antifouling activity 48h EC50 [2, 8]: 0.5 µg/mL | Antifouling activity 48h EC50 [2, 11]: 0.49 µg/mL | Toxicity 48h LC50 [2, 11]: >10 µg/mL

Dolastatin 16 [reference compound]
growth-inhibiting effect (in words) [3]: growth-inhibiting effect | growth-inhibiting effect (in words) [4]: growth-inhibiting effect | antifouling action (in words) [5]: antifouling actions | antifouling action (in words) ([5]; listed as synthetic Dolastatin 16): equivalent to that of the natural Dolastatin 16 | bottom surface-adhered individuals % ([1]; 3 µg/mL (30 µg)): 75.0% | bottom surface-crawling individuals % ([1]; 3 µg/mL (30 µg)): 0.0% | overturned individuals or closed shell individuals (unadhered) % ([1]; 3 µg/mL (30 µg)): 0.0% | wall surface-adhered individuals % ([1]; 3 µg/mL (30 µg)): 25.0% | number of byssal threads on the bottom surface [1, 7]: 72 | bottom surface-adhered individuals No. ([1]; 3 µg/mL (30 µg)): 9 | bottom surface-crawling individuals No. ([1]; 3 µg/mL (30 µg)): 0 | overturned individuals or closed shell individuals (unadhered) No. ([1]; 3 µg/mL (30 µg)): 0 | wall surface-adhered individuals No. ([1]; 3 µg/mL (30 µg)): 3 | bottom surface-adhered individuals % ([1]; 10 µg/mL (100 µg)): 100.0% | bottom surface-crawling individuals % ([1]; 10 µg/mL (100 µg)): 0.0% | number of byssal threads on the bottom surface ([1]; 10 µg/mL (100 µg)): 45 | overturned individuals or closed shell individuals (unadhered) % ([1]; 10 µg/mL (100 µg)): 0.0% | wall surface-adhered individuals % ([1]; 10 µg/mL (100 µg)): 0.0% | bottom surface-adhered individuals No. ([1]; 10 µg/mL (100 µg)): 12 | bottom surface-crawling individuals No. ([1]; 10 µg/mL (100 µg)): 0 | overturned individuals or closed shell individuals (unadhered) No. ([1]; 10 µg/mL (100 µg)): 0 | wall surface-adhered individuals No. ([1]; 10 µg/mL (100 µg)): 0 | antifouling effect (overall determination in words) [1]: no antifouling effect | growth-inhibiting effect (in words) [6]: growth-inhibiting effect

CCOC(=O)CC(C)NC(=O)[C@@H]1CCCN1C(=O)[C@H](Cc1ccccc1)NC(=O)OC(C)(C)C (stereo partly drawn) [tripeptide 10] (Boc-Phe-Pro-[ξβ3hA]-OEt)
bottom surface-adhered individuals % ([1]; 3 µg/mL (30 µg)): 66.7% | bottom surface-crawling individuals % ([1]; 3 µg/mL (30 µg)): 0.0% | overturned individuals or closed shell individuals (unadhered) % ([1]; 3 µg/mL (30 µg)): 8.3% | wall surface-adhered individuals % ([1]; 3 µg/mL (30 µg)): 25.0% | number of byssal threads on the bottom surface [1, 7]: 80 | bottom surface-adhered individuals No. ([1]; 3 µg/mL (30 µg)): 8 | bottom surface-crawling individuals No. ([1]; 3 µg/mL (30 µg)): 0 | overturned individuals or closed shell individuals (unadhered) No. ([1]; 3 µg/mL (30 µg)): 1 | wall surface-adhered individuals No. ([1]; 3 µg/mL (30 µg)): 3 | bottom surface-adhered individuals % ([1]; 10 µg/mL (100 µg)): 58.3% | bottom surface-crawling individuals % ([1]; 10 µg/mL (100 µg)): 0.0% | number of byssal threads on the bottom surface ([1]; 10 µg/mL (100 µg)): 11.5 | overturned individuals or closed shell individuals (unadhered) % ([1]; 10 µg/mL (100 µg)): 8.3% | wall surface-adhered individuals % ([1]; 10 µg/mL (100 µg)): 33.3% | bottom surface-adhered individuals No. ([1]; 10 µg/mL (100 µg)): 7 | bottom surface-crawling individuals No. ([1]; 10 µg/mL (100 µg)): 0 | overturned individuals or closed shell individuals (unadhered) No. ([1]; 10 µg/mL (100 µg)): 1 | wall surface-adhered individuals No. ([1]; 10 µg/mL (100 µg)): 4 | antifouling effect (overall determination in words) [1]: ineffective
